Holding throughout (test): inhibition of tumour cell growth, NCI panel, 48 h
Assay [1] has as its system RXF 393 renal.
The subject of assay [2] is NCI-H460 lung.
In assay [3] the test system is NCI/ADR-RES ovarian.
The test system of assay [4] is PC-3 prostate.
For assay [5], the system named is OVCAR-5 ovarian.
For assay [6], the system named is T-47D breast.
The test system of assay [7] is HS 578T breast.
Assay [8] relates to NCI-H226 lung.
In assay [9] the test system is A498 renal.
The subject of assay [10] is MALME-3M melanoma.

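Exposure lasted 48 hours, with cells grown in 96-well plates and compounds tested at five concentrations. GI50 = concentration required for 50% inhibition of growth. The concentration for full growth arrest is given as TGI.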 A value given as a limit tells only on which side of the number the result lay.

Consider `C/C(O)=C(/C=N/C(=S)Nc1ccc(S(N)(=O)=O)cc1)C(=O)Nc1ccccc1C`, for which the TGI in assay [1], in assay [2], in assay [3], in [4], in [5] and in assay [6] was more than 100 µM in each case. For the same compound, the TGI in assay [7] and in [8] was more than 100 µM each time.
As for `Cc1cc(NCCCN(C)C)c2ccc3c(ccc4c(NCCCN(C)C)cc(C)nc43)c2n1`, the GI50 is 0.189 µM in [9]; 0.171 µM in assay [2]; 0.583 µM in assay [3]; 0.199 µM in assay [4]; 0.246 µM in assay [5]; 0.244 µM in assay [10]. The GI50 in assay [6] was 0.521 µM; in assay [7], 0.197 µM; in [8], 0.215 µM. The TGI was determined as 0.409 µM in [9]; 0.441 µM in assay [2]; 3.38 µM in assay [3]; 0.609 µM in [4]; 0.909 µM in assay [5]; 0.894 µM in assay [10]. Also, the results for the TGI in [6], in assay [7] and in assay [8] were 2.54 µM, 0.667 µM and 0.88 µM, respectively.
For the compound `O=C1NNC2(C(=O)N1)c1ccccc1-c1ccccc12`, the TGI in assay [1], in assay [2], in assay [3], in [4], in assay [10] and in assay [6] was more than 10 µM throughout. Moreover, the TGI in assay [7] and in assay [8] was more than 10 µM in each case.
With `C=Cc1cncc(C#N)c1CCc1c(C#N)cncc1C=C`, the GI50 in assay [9] was more than 100 µM; in assay [1], more than 10 µM; in assay [2], more than 100 µM; in assay [5], more than 100 µM; in assay [10], more than 100 µM; in [8], more than 100 µM. The TGI in assay [9], in assay [1], in [2], in assay [5], in assay [10] and in assay [8] was more than 100 µM in each case.
`Cc1c(Cl)cccc1C(=O)Nc1nc2c(s1)CN(C(=O)c1ccc(C(F)(F)F)cc1)CC2`: the GI50 in [9] was 0.064 µM; in [2], 0.158 µM; in assay [3] it was 0.0418 µM; in [4], 0.117 µM; in assay [5] it was 0.311 µM; in assay [10], 0.515 µM. Besides, the GI50 in assay [6] is 0.199 µM; in [7] it was 0.0699 µM; in assay [8], 0.157 µM. The TGI in [9] is 20.9 µM; in [2], more than 20.4 µM; in assay [3], 2.31 µM; in [4], more than 50 µM; in assay [5] it was more than 50 µM; in assay [10], 17.8 µM. The values for the TGI in assay [6] and in [7] were 28.8 µM and more than 50 µM, respectively.
In the case of `CC1CCC/C1=C(/I)C(=O)c1ccccc1` (centres undefined), the TGI in assay [1], in assay [2], in assay [3], in assay [4], in assay [5] and in [10] was more than 100 µM each time. In addition, the TGI in assay [6], in [7] and in assay [8] was more than 100 µM each time.
Take `OC(CCNC12CC3CC(CC(C3)C1)C2)c1ccccc1` (centres undefined): the TGI in assay [9], in assay [1], in assay [2], in assay [5], in assay [10] and in [8] was more than 100 µM throughout.
For `COc1cc2c(cc1OC)[C@H](C)N1CCc3cc(OC)c(OC)cc3[C@@H]1C2`, the TGI in assay [9], in assay [2], in [3], in assay [4], in assay [5] and in assay [10] was more than 100 µM throughout. The TGI in assay [6], in [7] and in assay [8] was more than 100 µM in each case.
In the case of `Cc1cc([N+](=O)[O-])c(NS(=O)(=O)c2cccc(C(=O)O)c2)cc1-c1cccnc1`, the GI50 in assay [9], in assay [1], in assay [2], in assay [3], in assay [4] and in assay [5] was more than 100 µM each time. For the same compound, the GI50 in assay [10], in [6] and in assay [8] was more than 100 µM throughout. Also, the TGI in assay [9], in assay [1], in assay [2], in [3], in [4] and in assay [5] was more than 100 µM throughout. The TGI in assay [10], in assay [6] and in assay [8] was more than 100 µM throughout.
`C=C1CC2OC(=O)C(=C)C2C(O)C2C(=C)CCC12` (centres undefined): the TGI in assay [9] is 17.5 µM; in assay [1], 17.7 µM; in assay [2] it was 27.8 µM; in assay [5] it was 24.7 µM; in [10], 45.1 µM; in assay [8], 35.5 µM.
As for `C=CCN=C(N/N=C/c1ccc([N+](=O)[O-])o1)NS(=O)(=O)c1cc(C(=O)Nc2ccc(Cl)cc2)c(Cl)cc1SC`, the GI50 in assay [9] is 28.5 µM; in assay [2] it was 2.22 µM; in [3] it was more than 100 µM; in [4], 2.13 µM; in assay [5], 14.1 µM; in assay [10], 5.08 µM. Also, the GI50 in assay [6] was 5.96 µM; in assay [7], more than 41.9 µM; in assay [8], 13.5 µM. Further, the TGI is more than 100 µM in [9]; more than 35.2 µM in assay [2]; more than 100 µM in [3]; more than 100 µM in [4]; more than 100 µM in assay [5]; 63.4 µM in assay [10]. Further, the TGI is more than 51.5 µM in assay [6], more than 100 µM in assay [7] and more than 100 µM in assay [8].

(Values after PubChem BioAssay (NCI).)
